Source: patent publication US9828375B2, “4-position substituted pyrazolopyrimidine derivative, and use thereof in drug preparation” (Guangxi Wuzhou Pharmaceuticals (Group) Co., Ltd., priority 2012, dated 2017)

Tests used:
[1] = system: human malignant melanoma cell line WM2664
Description: The purpose of the experiment was to test the in vivo anti-tumor effect of the compound of the invention. […] The cell line used was human malignant melanoma cell line WM2664. The drug (sorafenib) undergoing anti-melanoma clinical trial was used as the positive control.
BALB/C nude mice at age of 6 to 8 weeks were used, and WM2664 cells were inoculated at the subcutaneous posterior ribs of the mice at a concentration of 5×106/0.1 mL/mouse; after the tumors grew to 200-300 mm^3 (for about 15 days), mice (n=6) were grouped and subject to oral intragastric administration.
Observation targets: Mouse weight and long and short diameters of tumor were measured every 3 days, and tumor volume (length×width^2×0.52) was calculated to observe for diarrhea, convulsion, rash, significant weight loss and other reactions.

[2] = system: inter segmental blood vessels of transgenic zebrafish (FLK1-GFP); assay: Angiogenesis inhibition activity test in transgenic zebrafish (FLK1-GFP); type: in vivo; conditions: concentration of 1 ug/mL, compared with the control group
Description: The new blood vessel inhibition activity of the test compounds was expressed by the inhibition degree of the test compounds for the inter segmental blood vessels of zebrafish at concentrations of 10 ug/mL, 3 ug/mL and 1 ug/mL.
Acquisition of zebrafish embryos: The zebrafish used by this laboratory was fluorescent transgenic zebrafish (FLK1: GFP). Refer to Westerfield method for breeding and cultivation of zebrafish. The day before spawns were obtained, male and female zebrafish were paired at the ratio of 1:1. On the second day, the male and female zebrafish naturally mated and spawned at a temperature of about 28° C. under sufficient illumination. Enough zebrafish embryos were collected, washed, placed into embryo culture media, and put into a 28° C. incubator for culture. The survival of embryos was identified by morphological and phylogenetic standards, and dead embryos were white and taken out timely to prevent deterioration of water quality. […]
Result observation: Thirty one hours after the zebrafish embryos were fertilized, spawns were taken out and hatched zebrafish was peeled off; and then the hatched zebrafish was put onto slide, 1‰ tricaine solution was added to narcotize the fish body, and 1.5% methylcellulose was used to fix the fish body; and the inter segmental vessels (ISV) were observed, counted and photographed under a fluorescence microscope. […]

[3] = system: human colorectal carcinoma cell line HT29; assay: In vivo anti-tumor experiment, nude mouse-subcutaneous human colorectal carcinoma HT29 model; design: species or system BALB/C nude mice
Excerpt: (§1) The cell lines used were human colorectal carcinoma cell line HT29 and human glioma cell line U251.

[4] = system: human glioma cell line U251; assay: In vivo anti-tumor experiment, nude mouse-subcutaneous human glioma U251 model; design: species or system BALB/C nude mice
Excerpt: as §1

[5] = daily dose of 30 mg/kg or above, oral
[6] = nude mice, 15-60 mg/kg q.d. oral

| SMILES | effect compared with sorafenib ([1]; 4a-2 25 mg/kg/d vs sorafenib at daily dose of 50 mg/kg) | in vivo tumor growth inhibition effect ([1]; dose of 25 mg/kg/d, oral, WM2664 (BRAF V600D) model) | angiogenesis inhibition for FLK1 transgenic zebrafish [2] | in vivo tumor growth inhibition effect [3, 5] | weight loss, rash, diarrhea and other adverse reactions during administration [3, 6] | in vivo tumor growth inhibition effect [4, 5] | weight loss, rash, diarrhea and other adverse reactions during administration [4, 6] |
| --- | --- | --- | --- | --- | --- | --- | --- |
| O=C(Nc1ccc(Oc2ncnc3[nH]ncc23)cc1)Nc1ccc(Cl)c(C(F)(F)F)c1 [4a-2] | more effective than sorafenib | obviously inhibit tumor growth | – | – | – | – | – |
| O=C(Nc1ccc(Oc2ncnc3[nH]ncc23)cc1)Nc1cccc(C(F)(F)F)c1 [4a-6] | – | – | inhibit angiogenesis of zebrafish very well | obviously inhibit tumor growth | not found | obviously inhibit tumor growth | not found |
| CC(C)(C)c1cc(NC(=O)Nc2ccc(Oc3ncnc4[nH]ncc34)c(F)c2)no1 [4a-31] | – | – | inhibit angiogenesis of zebrafish very well | – | – | – | – |
